Target: α7 nAChR (Homo sapiens, UniProt P36544)
Experiment: whole-cell patch clamp, inhibition of […] ACh-evoked currents by […] 4R
Format: cell-based
Settings: shsy5y cells

α7 nAChR, sequence (P36544 23-502): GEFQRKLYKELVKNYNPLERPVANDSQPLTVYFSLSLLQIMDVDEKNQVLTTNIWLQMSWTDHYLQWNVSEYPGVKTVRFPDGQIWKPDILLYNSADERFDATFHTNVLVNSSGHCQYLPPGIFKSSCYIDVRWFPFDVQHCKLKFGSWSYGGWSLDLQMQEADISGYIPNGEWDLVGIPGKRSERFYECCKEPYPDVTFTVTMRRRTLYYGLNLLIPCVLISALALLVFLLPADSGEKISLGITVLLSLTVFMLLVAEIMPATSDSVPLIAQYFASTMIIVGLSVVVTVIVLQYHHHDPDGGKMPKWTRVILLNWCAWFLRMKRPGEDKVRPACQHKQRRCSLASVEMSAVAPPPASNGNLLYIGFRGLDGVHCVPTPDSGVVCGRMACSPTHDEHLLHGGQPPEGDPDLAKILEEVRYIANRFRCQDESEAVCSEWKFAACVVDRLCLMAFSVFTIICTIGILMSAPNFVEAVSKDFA

## C/C1=C\[C@H](O)C[C@@](C)(O)/C=C/[C@H](C(C)C)CC/C(C)=C/CC1 [4R, (1S,2E,4R,6R,7E,11E)-cembra-2,7,11-triene-4,6-diol]
  % inhibition at 25 μM: 82% ± 18% inhibition at 25 μM

From paper PMC4122130 (Journal of neuroscience research, 2012)
